Reference: patent US8124778B2, “Tricyclic inhibitors of fatty acid amide hydrolase” (The Scripps Research Institute, priority 2007, dated 2012)

Columns and labels:
[1] = molecular target: T1, KIAA1363 (Mus musculus, UniProt Q8BLF1); test: Proteome-wide selectivity screening, KIAA1363; assay type: biochemical; conditions: IC50 based
T1 construct: from tissue
T1 sequence (Q8BLF1 1-408): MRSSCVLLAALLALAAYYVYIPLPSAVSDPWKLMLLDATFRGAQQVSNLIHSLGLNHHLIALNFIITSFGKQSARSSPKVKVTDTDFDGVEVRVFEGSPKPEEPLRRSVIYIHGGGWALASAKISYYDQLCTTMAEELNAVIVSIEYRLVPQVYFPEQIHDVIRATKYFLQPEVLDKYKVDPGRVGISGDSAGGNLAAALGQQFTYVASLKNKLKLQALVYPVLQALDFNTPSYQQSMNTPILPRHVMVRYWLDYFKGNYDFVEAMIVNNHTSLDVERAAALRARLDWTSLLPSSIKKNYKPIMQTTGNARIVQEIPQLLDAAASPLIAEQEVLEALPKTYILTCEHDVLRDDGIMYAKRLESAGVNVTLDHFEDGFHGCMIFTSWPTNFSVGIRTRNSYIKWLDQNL
Source text: (§1) The present invention concerns the synthesis and evaluation of a systematic series of α-keto oxazole inhibitors having variations at the C2 acyl side chain along with results of the proteome-wide selectivity screening of the candidate inhibitors. The screening protocol is described by Leung, D.; Hardouin, C.; et al. Nature Biotech. 2003, 21, 687-691.
(§2) Selectivity Screening. […] Consequently a method for proteomic-wide screening capable of globally profiling all mammalian serine hydrolases was developed (Leung, D.; Hardouin, C.; et al. Nature Biotech. 2003, 21, 687-691) and studies have shown that the α-ketoheterocycle class of inhibitors generally are exquisitely selective for FAAH (Boger, D. L.; Miyauchi, H.; et al. J. Med. Chem. 2005, 48, 1849-1856; Leung, D.; Du, W.; et al. Bioorg. Med. Chem. Lett. 2005, 15, 1423-1428; Lichtman, A. H.; Leung, D.; et al. J. Pharmacol. Exp. Ther. 2004, 311, 441-448). However, two enzymes did emerge as potential competitive targets: triacylglycerol hydrolase (TGH) and an uncharacterized membrane-associated hydrolase that lacks known substrates or function (KIAA1363). In this screen, IC50 values are typically higher than the measured Ki values, but the relative potency, the magnitude of binding affinity differences and the rank order binding determined in the assay parallels that established by standard substrate assays. […]

[2] = molecular target: T2, triacylglycerol hydrolase (TGH) (Mus musculus, UniProt Q8VCT4); test: Proteome-wide selectivity screening, TGH; assay type: biochemical; conditions: IC50 based
T2 construct: from tissue
T2 sequence (Q8VCT4 19-565): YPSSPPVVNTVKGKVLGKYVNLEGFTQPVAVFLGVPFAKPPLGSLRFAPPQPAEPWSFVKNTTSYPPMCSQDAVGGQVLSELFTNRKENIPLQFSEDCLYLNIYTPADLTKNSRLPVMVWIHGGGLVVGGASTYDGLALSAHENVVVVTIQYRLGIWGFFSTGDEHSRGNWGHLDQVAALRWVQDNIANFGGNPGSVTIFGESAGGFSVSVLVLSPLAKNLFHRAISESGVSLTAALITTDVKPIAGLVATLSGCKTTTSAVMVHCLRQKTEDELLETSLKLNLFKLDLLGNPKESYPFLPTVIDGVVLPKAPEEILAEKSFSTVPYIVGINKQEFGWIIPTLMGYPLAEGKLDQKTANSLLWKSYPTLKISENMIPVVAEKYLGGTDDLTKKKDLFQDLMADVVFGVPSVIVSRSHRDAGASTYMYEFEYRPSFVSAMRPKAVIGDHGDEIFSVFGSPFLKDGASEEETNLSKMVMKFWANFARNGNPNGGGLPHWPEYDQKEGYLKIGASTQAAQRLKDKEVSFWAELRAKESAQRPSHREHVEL
Source text: as §1, §2

Structure (SMILES) | selectivity for FAAH over KIAA1363 (in words) [1] | selectivity for FAAH over TGH (in words) [2]
O=C(CCCCCCc1ccccn1)c1ncc(-c2ccccn2)o1 [5e, 1-Oxo-1-[5-(2-pyridyl)oxazol-2-yl]-7-(2-pyridyl)heptane] | very selective | moderately selective
O=C(CCCCCCc1cccnc1)c1ncc(-c2ccccn2)o1 [5f, 1-Oxo-1-[5-(2-pyridyl)oxazol-2-yl]-7-(3-pyridyl)heptane] | very selective | moderately selective
